Experimental data: US12624350B2, “High-throughput single-nuclei and single-cell libraries and methods of making and of using” (ILLUMINA, INC., priority 2019, dated 2026)

Experiments:
Format in all cases: cell-based, human
MCF7 = experiment: sci-Plex of pracinostat co-treatment with acetyl-CoA precursors or enzyme inhibitors; settings: 24 hours
Description: (§1) To validate this further, we sought to shift the distribution of cells along the HDAC inhibitor trajectory by modulating cellular acetyl-CoA levels. We treated A549 and MCF7 cells with pracinostat in the presence and absence of acetyl-CoA precursors (acetate, pyruvate, or citrate) or inhibitors of enzymes (ACLY, ACSS2, or PDH) involved in replenishing acetyl-CoA pools. After treatment, cells were harvested and processed using sci-Plex and trajectories constructed for each cell line (FIGS. 39 and 40).
(§2) For 96-well experiments, adherent cells were trypsinized, washed with PBS and plated in tissue culture treated 96 well flat bottom plates (Thermo Fisher Scientific, cat no. 12-656-66) at 25,000 cells per well in 100 μL of media. Suspension cells were washed with PBS and plated in 96 well V-bottom tissue culture plates (Thermo Fisher Scientific, cat no. 549935) at 25,000 cells per well in 100 μL of media. Cells were allowed to recover for 24 hours before treatment with 1 μL of a 1:10 dilution of the appropriate compound or vehicle in PBS to maintain a vehicle concentration of 0.1% for all wells. Cells were then exposed to small molecules at the specified concentration for either 24 or 72 hours. For experiments where cells were co-treated with HDAC inhibitors and either acetate, pyruvate, citrate, ACSS2 inhibitor (EMD Millipore Inc., Cat No. 533756), ACLY inhibitor (Cayman Chemicals, BMS-303141 Cat No. 943962-47-8) or PDH inhibitor (Cayman Chemicals, Cat No. 504817), cells were treated 24 hours after plating and harvested after 24 hours. In this set of experiments, all wells contained a final concentration of 0.2% DMSO to match treatment with both the HDAC inhibitor and inhibitors of metabolic processes.
(§3) Gene expression profiles were visualized with Monocle 3, which uses UMAP to project them into a two or three dimensional space. Briefly, Monocle 3 first calculates size factors for every cell. Size factors were calculated as the log UMI counts observed in a single cell divided by the geometric mean of log UMI counts from all measured cells. After scaling each nucleus' UMI counts by its library size factor, Monocle3 adds a pseudocount of 1, and log transforms the counts. Next, these log-transformed profiles are projected onto the top 25 principal components. These PCA coordinates were transformed by Monocle 3 (using an approach similar to the removeBatchEffect( ) function in the limma package (42)) according to the model ‘˜log(UMIs)+replicate’ (FIG. 9) or ‘log(UMIs)+viability+proliferation index+replicate’. Adjusted PCA coordinates for each cell are used to initialize UMAP. Unless otherwise noted, UMAP was run with the following parameters: 50 nearest neighbors, min_dist=0.1, inter-cell distance assessed by cosine similarity. UMAP projection of cells after dual HDAC inhibition and acetyl-COA precursor supplementation or acetyl-CoA generating enzyme inhibition was performed as described with the exception that PCA initialization was performed on the top 1000 most overdispersed genes. Louvain community detection was then performed on this UMAP space using the python package ‘louvain’. Trajectory reconstruction was then performed as described in (21).

A549 [1] = experiment: as above; settings: 24 hours
Description: as §1, §2, §3

[2] = system: lung adenocarcinoma-derived (A549) cells; experiment: sciPlex-ATAC-seq chemical screen (single-cell chromatin accessibility); settings: A549, 24 hours
Method: Each well of a 96-well culture dish was treated for 24 hours with Nutlin-3A (p53 agonist), SAHA (broad spectrum histone deacetylase inhibitor), BMS345541 (NF-kB inhibitor), Dexamethasone (glucocorticoid receptor agonist) or a vehicle control. Moreover, we varied the dose of drug added to each well, such that the effects of each compound could be evaluated at seven different concentrations. Finally, all treatments were performed in biological triplicate (FIG. 42A). After applying unique labels to each well, cells from all conditions were pooled for parallel preparation of single cell accessible chromatin profiles.
Adherent cells grown in 96 well format were prepared by first aspirating the existing media. 50 µL of TrypLE (Termo-Fisher) was then added per well and the plate was incubated at 37 C for 15 minutes for A549. After incubation, 1504 of 1×DMEM (Gibco)+10% FBS (Gibco) was added to quench the TrypLE reaction. The 2004 volume cell suspension in each well was then transferred into a V-bottom 96 well plate, preserving the well orientations. Cells were then spun for 5 minutes at 300 g to pellet cells before aspirating media. Cell pellets were washed with 100 μL 1×DPBS and then pelleted at 300 g for 5 minutes. […]
Pooled, hash-labeled nuclei were thawed on ice, inspected for nuclei integrity, counted and further adjusted to 2.5 million nuclei/mL if necessary. […]

A549 [3] = experiment: sci-Plex of A549 cells treated for 72 hours with one of 48 compounds; settings: A549, 72 hours
Method: Such heterogeneity could be explained by cells executing a defined transcriptional program asynchronously, with the dose of drug that the cells are exposed to modulating the rates of their progression through it. To test this hypothesis, we sequenced the transcriptomes of 64,440 A549 cells that were treated for 72 hours with one of 48 compounds, including many of the HDAC inhibitors from the large sci-Plex screen.
For 96-well experiments, adherent cells were trypsinized, washed with PBS and plated in tissue culture treated 96 well flat bottom plates (Thermo Fisher Scientific, cat no. 12-656-66) at 25,000 cells per well in 100 μL of media. Suspension cells were washed with PBS and plated in 96 well V-bottom tissue culture plates (Thermo Fisher Scientific, cat no. 549935) at 25,000 cells per well in 100 μL of media. Cells were allowed to recover for 24 hours before treatment with 1 μL of a 1:10 dilution of the appropriate compound or vehicle in PBS to maintain a vehicle concentration of 0.1% for all wells. […]
To organize cells treated with HDAC inhibitors into a trajectory cells were sampled to equalize the number of cells represented between the three cell lines or between treatments at 24 and 72 hrs. […] All other cells' pseudodoses was measured as the geodesic distance between their nearest principal graph node to an origin node.

[4] = system: A549, MCF7 and K562 cells; experiment: flow cytometry of total cellular acetylated lysines; set-up: dose or concentration left out as unconfirmed; settings: 24 hours
Method: A549 and MCF7 cells were seeded in 6 cm dishes at 1.6×10^6 cells per plate. K562 cells were seeded in T25 cm2 flasks at 1.6×10^6 cells per flask. […] After treatment cells were harvested as described above, pellets washed twice in PBS, resuspended in 500 μL of cold PBS and fixed by the addition of 5 mL of ice-cold ethanol while vortexing at low speed. Cells were stored at −20 C prior to processing for flow cytometry analysis. For flow cytometry, ethanol was removed and fixed cells washed twice with PBS containing 1% BSA (PBS-B) and blocked for 1 hour at room temperature. Then, blocking buffer was removed and cells were incubated in PBS containing 1% BSA and 0.1% tryton X-100 (PBS-BT) as well as a 1:500 dilution of mouse anti-acetyl-lysine antibody (cat no. ICP0390, ImmuneChem Pharmaceuticals Inc) for 2 hours at room temperature. After incubation, cells were washed twice with PBS-BT and incubated with goat anti-mouse Alexa-647 in PBS-BT for 1 hour at room temperature. Lastly, cells were washed twice with PBS-BT, once with PBS-B and resuspended in PBS-B containing 5 μg/ml Hoechst 33258 (Life Sciences Technologies) to stain the DNA. Then the levels of total acetylated-lysine and DNA content was analyzed by flow cytometry on an LSRII flow cytometer (BD Biosciences). Quantification and downstream analysis was performed using FlowJo10 (FlowJo.LLC).

A549 [5] = experiment: large-scale sci-Plex screen (sci-RNA-seq3) of 188 compounds; settings: A549, 24 hours; for distinct transcriptional states induced by the same drug (focal enrichments in UMAP): cells from all four doses
Method: We exposed three well-characterized human cancer cell lines, A549 (lung adenocarcinoma), K562 (chronic myelogenous leukemia), and MCF7 (mammary adenocarcinoma), to each of these 188 compounds at four doses (10 nM, 100 nM, 1 mM, and 10 mM) in duplicate, randomizing compounds and doses across well positions in replicate culture plates (data not shown). These conditions, together with vehicle controls, accounted for 4608 of 4992 independently treated cell populations in this experiment. After treatment, we lysed cells to expose nuclei, hashed them with a specific combination of two oligos (FIG. 10A), and performed sci-RNA-seq3 (21).
Lysis was conducted in the 96 well V-bottom plate. […] For the large compound screen, 500 femtomoles of an additional oligo was used to uniquely index each 96 well treatment plate. After lysis with 3 strokes of multichannel pipette, cells were fixed by addition of 200 μL of fixation buffer (5% Paraformaldehyde, 1.25×PBS). Nuclei were then fixed on ice for 15 minutes before pooling into a trough. Nuclei were pooled by plate into a 50 mL conical tube and pelleted by centrifugation at 500×g for 5 minutes. Subsequently, cells were resuspended in 500 μL of nuclei suspension buffer (NSB; (10 mM Tris-HCl, pH 7.4, 10 mM NaCl, 3 mM MgCl2, 1% Superase RNA Inhibitor, 1% 0.2 mg/mL Ultrapure BSA)). Finally, nuclei from all plates were pooled into a single conical tube and nuclei were pelleted by centrifugation at 500×g for 5 minutes. Nuclei were then resuspended in 1 mL of NSB and flash frozen into liquid nitrogen in 100 μL aliquots. Nuclei were then stored at −80 C until further processing with sci-RNA-seq.

A549 [6] = experiment: pilot sci-Plex experiment (sci-RNA-seq2), four compounds; settings: A549, 24 hours, seven doses
Method: We exposed A549, a human lung adenocarcinoma cell line, to one of four compounds: dexamethasone (a corticosteroid agonist), nutlin-3a (a p53-Mdm2 antagonist), BMS-345541 (an inhibitor of nuclear factor kB-dependent transcription), or vorinostat [suberoylanilide hydroxamic acid (SAHA), an HDAC inhibitor], for 24 hours across seven doses in triplicate for a total of 84 drug-dose-replicate combinations and additional vehicle controls (FIG. 6A and FIG. 7A). We labeled nuclei from each well and subjected them to sci-RNA-seq2 (FIG. 7, B to D, and Table 1).
To quantify the “population average” transcriptional response of A549 cells to each of the four drugs, we modeled each gene's expression as a function of dose through generalized linear regression. […] Additionally, we evaluated whether the number of cells recovered at each concentration could be used to infer toxicity akin to traditional screens.

In the case of `COc1ccc(-c2ccccc2)cc1NS(=O)(=O)c1cc(Cl)cc(Cl)c1O` [ACLY inhibitor], the “shift of pracinostat treated cells along the HDAC inhibitor trajectory” value (MCF7) is reported as “shifted cells farther along the HDAC inhibitor trajectory” and the “shift of pracinostat treated cells along the HDAC inhibitor trajectory” value (A549 [1]) is reported as “no such shift was observed”.

For `COCCNC(=O)Nc1ccc2nc(-c3cccs3)c(-c3cccs3)nc2c1` [ACSS2 inhibitor], the “shift of pracinostat treated cells along the HDAC inhibitor trajectory” value (MCF7) was “shifted cells farther along the HDAC inhibitor trajectory” and the “shift of pracinostat treated cells along the HDAC inhibitor trajectory” value (A549 [1]) was “no such shift was observed”.

For `O=C(CCCCCCC(=O)Nc1ccccc1)NO` [SAHA, suberoylanilide hydroxamic acid], the “accessibility of non-coding sites upstream of the COPS7A locus” value [2] was “dose dependent accessibility” and the “dosage-dependent change of the chromatin regulatory landscape” value ([2]; seven concentrations) was “increasingly altered regulatory landscapes with higher doses”.

With `Cc1nc(-c2cccnc2)sc1C(=O)Nc1ccccc1-c1cn2c(CN3CCOCC3)csc2n1` [SRT1024] the “focal concentrations of cells in coembedded UMAP projection, 72 hours versus 24 hours” value (A549 [3]) was “new focal concentrations of cells at 72 hours”.

With `CN(C)Cc1c(C(=O)NCCOc2ccc(C(=O)NO)cc2)oc2ccccc12` [abexinostat] the acetylated lysine levels [4] was “markedly increased acetylated lysine levels”.

`CC(=O)O` [acetate] was tested, and the “shift of pracinostat treated cells along the HDAC inhibitor trajectory” value (MCF7) was “capable of blocking pracinostat treated cells from reaching the end of the HDAC inhibitor trajectory” and the “shift of pracinostat treated cells along the HDAC inhibitor trajectory” value (A549 [1]) was “capable of blocking pracinostat treated cells from reaching the end of the HDAC inhibitor trajectory”.

`O=C(O)CC(O)(CC(=O)O)C(=O)O` [citrate] was tested, and the “shift of pracinostat treated cells along the HDAC inhibitor trajectory” value (MCF7) was “capable of blocking pracinostat treated cells from reaching the end of the HDAC inhibitor trajectory” and the “shift of pracinostat treated cells along the HDAC inhibitor trajectory” value (A549 [1]) was “capable of blocking pracinostat treated cells from reaching the end of the HDAC inhibitor trajectory”.

With `C/C(=C\c1csc(C)n1)[C@@H]1C[C@@H]2O[C@@H]2CCC[C@H](C)[C@H](O)[C@@H](C)C(=O)C(C)(C)[C@@H](O)CC(=O)O1` [epothilone A] the “distinct transcriptional states induced by the same drug (focal enrichments in UMAP)” value (A549 [5]) was “associated with three such focal enrichments”.

`C/C(=C\c1csc(C)n1)[C@@H]1C[C@@H]2O[C@]2(C)CCC[C@H](C)[C@H](O)[C@@H](C)C(=O)C(C)(C)[C@@H](O)CC(=O)O1` [epothilone B] was tested, and the “distinct transcriptional states induced by the same drug (focal enrichments in UMAP)” value (A549 [5]) was “associated with three such focal enrichments”.

With `COc1ccc(C2=N[C@@H](c3ccc(Cl)cc3)[C@@H](c3ccc(Cl)cc3)N2C(=O)N2CCNC(=O)C2)c(OC(C)C)c1` [nutlin-3a] the “drug-specific pathways revealed by gene ontology analysis of differentially expressed genes” value (A549 [6]) was “p53 signaling”.

For `CCCCc1nc2cc(/C=C/C(=O)NO)ccc2n1CCN(CC)CC` [pracinostat], the acetylated lysine levels [4] was “markedly increased acetylated lysine levels” and the “heterogeneity of cell response along the HDAC inhibitor pseudodose trajectory at each dose” value (A549 [5]) was “homogeneous responses”.

With `CC1(C)O[C@@H]2C[C@H]3[C@@H]4CCC5=CC(=O)C=C[C@]5(C)[C@@]4(F)[C@@H](O)C[C@]3(C)[C@]2(C(=O)CO)O1` [triamcinolone acetonide] the “share of the cells of one small UMAP cluster that were treated with the compound” value (A549 [5]; cluster 18, Fisher's exact test FDR<1%) was 95%.
